The record followed here is patent publication US20170157135A1 (Novogen Limited, priority 2013, published 2017).

Common to all, as to assay type: cell-based
One test has as its system A549 lung (NSLC) cells. The test can be described thus: Anti-proliferative assay (cell-titre luminescent), A549. As to conditions: Homo sapiens; A549, 72 hours, luminescence. As to the method:
(§1) The ability of compounds 2002, 2009 and 2013-2064 to inhibit the proliferation of cancer cells representative of neuroblastoma, melanoma, prostate cancer, colorectal cancer, non-small cell lung carcinoma, and triple negative breast cancer was assessed. These studies were conducted by contract research (GVK-BIO). Briefly, a pre-determined number of cells as calculated from cell growth assays for each of the cell lines employed were seeded into their respective culture medium (using ATCC culture parameters—http://www.atcc.org) and cultured for 24 h at 37° C. and 5% CO2 in 96-well culture plates. Once attached, each cell line was then exposed to various concentrations of each respective analogue (30, 10, 3, 1, 0.3 and 0.1 μM), cultured for a further 72 hours and exposed to cell-titre luminescent reagent (100 μL/well) for a further 30 minutes). Luminescence was captured using an EnVision multilabel reader and the data for each analogue concentration compared against no treatment control. Cell viability was normalized to control (vehicle alone) and dose-response curves, and half maximal effective concentration (EC50) values were determined using Graph Pad Prism 6 (nonlinear regression sigmoidal dose-response variable slope).

The test system of the next test is SK-Mel-28 melanoma cells. In words: Anti-proliferative assay (cell-titre luminescent), SK-Mel-28. As to conditions: Homo sapiens; SK-Mel-28, 72 hours, luminescence. On the procedure: as §1
The test system of test [1] is SK-N-SH neuroblastoma cells. The test can be described thus: Anti-proliferative assay (cell-titre luminescent), SK-N-SH. To be noted: Homo sapiens, 72 hours, luminescence. As to the method:
as §1

Test [2] has as its system PC3 prostate cancer cells. In words: Anti-proliferative assay (cell-titre luminescent), PC3. To be noted: PC3, 72 hours, luminescence. On the procedure: as §1
The subject of test [3] is MDA-MB-231 breast cancer cells. In words: Anti-proliferative assay (cell-titre luminescent), MDA-MB-231. As to conditions: Homo sapiens; MDA-MB-231, 72 hours, luminescence. On the procedure:
as §1

In test [4] the test system is DU145 prostate cancer cells. The test can be described thus: Anti-proliferative assay (cell-titre luminescent), DU145. As to conditions: Homo sapiens, DU-145; DU145, 72 hours, luminescence. As to the method:
as §1

Test [5] deals with CaCo2 colorectal cancer cells. The test can be described thus: Anti-proliferative assay (cell-titre luminescent), CaCo2. As to conditions: Homo sapiens, Caco-2; CaCo2, 72 hours, luminescence. As to the method: as §1

One may read the IC50 as the concentration that inhibits the measured activity by half. A low value points to greater potency. On to `CCOc1ccc2c(c1)c(C(=O)N1CCN(CCc3ccc(F)cc3)CC1)c(C)n2CCCN(C)C` [Compound 2062, (1-(3-(dimethylamino)propyl)-5-ethoxy-2-methyl-1H-indol-3-yl)(4-(4-fluorophenethyl)piperazin-1-yl)methanone], for which the IC50 in the test on A549 lung (NSLC) cells is above 30 µM; in the test with SK-Mel-28 melanoma cells, 9 µM; in test [1], 20.6 µM; in test [2], 13.1 µM; in test [3], 8.1 µM; in test [4] it was above 30 µM. Besides, in test [5], the IC50 stood at 18.6 µM.
As to `Cc1c(/C=C/C(=O)N2CCN(CCc3ccccc3)CC2)c2ccccc2n1CCCN(C)C` [Compound 2017, (E)-3-(1-(3-(dimethylamino)propyl)-2-methyl-1H-indol-3-yl)-1-(4-phenethylpiperazin-1-yl)prop-2-en-1-one], the IC50 came to 13.6 µM in the test on A549 lung (NSLC) cells; 8.7 µM with SK-Mel-28 melanoma cells; 17.6 µM in test [1]; 11.5 µM in test [2]; 18.5 µM in test [3]; 15.7 µM in test [4]. Also, the IC50 in test [5] worked out at 12.6 µM.
Take `COc1ccc2c(c1)c(C(=O)N1CCN(CCc3ccc4c(c3)OCO4)CC1)c(C)n2CCCN1CCN(C)CC1` [Compound 2058, (4-(2-(benzo[d][1,3]dioxol-5-yl)ethyl)piperazin-1-yl)(5-methoxy-2-methyl-1-(3-(4-methylpiperazin-1-yl)propyl)-1H-indol-3-yl)methanone]: the IC50 was 13.9 µM with A549 lung (NSLC) cells; 4.8 µM in the test with SK-Mel-28 melanoma cells; 8 µM in test [1]; 12 µM in test [2]; 29.8 µM in test [3]; 21.1 µM in test [4]. Besides, 10.8 µM corresponded to half-maximal inhibition in test [5] (IC50).
Take `CCN(CC)CCCn1c(C)c(/C=C/C(=O)N2CCN(CCc3cccc(OC)c3)CC2)c2cc(OC)ccc21` [Compound 2027, (E)-3-(1-(3-(diethylamino)propyl)-5-methoxy-2-methyl-1H-indol-3-yl)-1-(4-(3-methoxyphenethyl)piperazin-1-yl)prop-2-en-1-one]: the IC50 with A549 lung (NSLC) cells was 23.5 µM; in the test on SK-Mel-28 melanoma cells, 3.8 µM; in test [1], 8.2 µM; in test [2], 9.3 µM; in test [3] it was 5.6 µM; in test [4], 51.9 µM. Further, the midpoint of inhibition in test [5], the IC50, lay at 12.3 µM.
On to `COc1ccc(CCN2CCN(C(=O)/C=C/c3c(C)n(CCCN(C)C)c4ccc(OC)cc34)CC2)cc1` [Compound 2019, (E)-3-(1-(3-(dimethylamino)propyl)-5-methoxy-2-methyl-1H-indol-3-yl)-1-(4-(4-methoxyphenethyl)piperazin-1-yl)prop-2-en-1-one], for which the IC50 was 10.6 µM with A549 lung (NSLC) cells; 6.3 µM with SK-Mel-28 melanoma cells; 5.5 µM in test [1]; 9.3 µM in test [2]; 5.1 µM in test [3]; 14.8 µM in test [4]. This molecule showed an IC50 in test [5] of 25.1 µM.
For `CCN(CC)CCCn1c(C)c(C(=O)N2CCN(CCc3cccc(F)c3)CC2)c2cc(OC)ccc21` [Compound 2053, (1-(3-(diethylamino)propyl)-5-methoxy-2-methyl-1H-indol-3-yl)(4-(3-fluorophenethyl)piperazin-1-yl)methanone], the IC50 in the test on A549 lung (NSLC) cells was determined as 13.5 µM; in the test with SK-Mel-28 melanoma cells, 4.7 µM; in test [1], 4.8 µM; in test [2] it was 11 µM; in test [3], 12.6 µM; in test [4] it was 13.6 µM. In addition, the half-inhibitory concentration (IC50) in test [5] stood at 12.2 µM.
As to `CCN(CC)CCCn1c(C)c(C(=O)N2CCN(CCc3cccc(OC)c3)CC2)c2cc(OC)ccc21` [Compound 2054, (1-(3-(diethylamino)propyl)-5-methoxy-2-methyl-1H-indol-3-yl)(4-(3-methoxyphenethyl)piperazin-1-yl)methanone], the IC50 in the test with A549 lung (NSLC) cells is 17.8 µM; in the test with SK-Mel-28 melanoma cells, 5.4 µM; in test [1], 10.4 µM; in test [2], 6.9 µM; in test [3], 11.8 µM; in test [4], above 30 µM. Moreover, in test [5], the half-inhibitory concentration (IC50) was above 30 µM.
Consider `COc1ccc2c(c1)c(/C=C/C(=O)N1CCN(CCc3ccc4c(c3)OCO4)CC1)c(C)n2CCCN(C)C` [Compound 2020, (E)-1-(4-(2-(benzo[d][1,3]dioxol-5-yl)ethyl)piperazin-1-yl)-3-(1-(3-(dimethylamino)propyl)-5-methoxy-2-methyl-1H-indol-3-yl)prop-2-en-1-one], for which the IC50 was determined as 3.5 µM in the test with A549 lung (NSLC) cells; 3.5 µM in the test with SK-Mel-28 melanoma cells; 3.9 µM in test [1]; 5.1 µM in test [2]; 5.1 µM in test [3]; 5.7 µM in test [4]. The IC50 in test [5] came out at 4.5 µM.
`COc1ccc(CCN2CCN(C(=O)c3c(C)n(CCCN(C)C)c4ccccc34)CC2)cc1` [Compound 2039, (1-(3-(dimethylamino)propyl)-2-methyl-1H-indol-3-yl)(4-(4-methoxyphenethyl)piperazin-1-yl)methanone]: the IC50 came to 44 µM with A549 lung (NSLC) cells; 11 µM with SK-Mel-28 melanoma cells; 12.6 µM in test [1]; 7.6 µM in test [2]; 16.6 µM in test [3]; 72.6 µM in test [4]. The molecule further gave an IC50 in test [5] of 4.8 µM.
Take `CCOc1ccc2c(c1)c(C(=O)N1CCN(CCc3ccc(F)cc3)CC1)c(C)n2CCCN(CC)CC` [Compound 2063, (1-(3-(diethylamino)propyl)-5-ethoxy-2-methyl-1H-indol-3-yl)(4-(4-fluorophenethyl)piperazin-1-yl)methanone]: the IC50 in the test on A549 lung (NSLC) cells was 10.9 µM; in the test on SK-Mel-28 melanoma cells it was 3.5 µM; in test [1], 5.3 µM; in test [2] it was 7.2 µM; in test [3], 3 µM; in test [4], 13 µM. In addition, in test [5], the IC50 amounted to 4.1 µM.
With `CCOc1ccc2c(c1)c(/C=C/C(=O)N1CCN(CCc3ccc(F)cc3)CC1)c(C)n2CCCN1CCN(C)CC1` [Compound 2037, (E)-3-(5-ethoxy-2-methyl-1-(3-(4-methylpiperazin-1-yl)propyl)-1H-indol-3-yl)-1-(4-(4-fluorophenethyl)piperazin-1-yl)prop-2-en-1-one], the IC50 came to 6.6 µM in the test on A549 lung (NSLC) cells; 2.7 µM with SK-Mel-28 melanoma cells; 3.1 µM in test [1]; 8.7 µM in test [2]; 5 µM in test [3]; 5 µM in test [4]. The molecule further showed an IC50 in test [5] of 4.8 µM.
Turning to `COc1cccc(CCN2CCN(C(=O)/C=C/c3c(C)n(CCCN(C)C)c4ccccc34)CC2)c1` [Compound 2016, (E)-3-(1-(3-(dimethylamino)propyl)-2-methyl-1H-indol-3-yl)-1-(4-(3-methoxyphenethyl)piperazin-1-yl)prop-2-en-1-one], the IC50 was found to be 4.8 µM in the test with A549 lung (NSLC) cells; 4.1 µM in the test on SK-Mel-28 melanoma cells; 5 µM in test [1]; 5.8 µM in test [2]; 10.8 µM in test [3]; 5.4 µM in test [4]. Besides, in test [5], half-maximal inhibition (IC50) was put at 8.9 µM.
Consider `COc1ccc(CCN2CCN(C(=O)/C=C/c3c(C)n(CCCN(C)C)c4ccccc34)CC2)cc1` [Compound 2013, (E)-3-(1-(3-(dimethylamino)propyl)-2-methyl-1H-indol-3-yl)-1-(4-(4-methoxyphenethyl)piperazin-1-yl)prop-2-en-1-one], for which the IC50 turned out to be 6.1 µM in the test on A549 lung (NSLC) cells; 3.8 µM in the test on SK-Mel-28 melanoma cells; 3.2 µM in test [1]; 4.8 µM in test [2]; 6.8 µM in test [3]; 10 µM in test [4]. The molecule further had an IC50 in test [5] of 9.1 µM.
